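The compound was tested at five concentrations on cells cultured in 96-well plates, with a 48-hour exposure period. GI50 marks 50% less growth.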 The source made the active and inactive calls. Cut-off read from the data, not from the text of the source: active = GI50 up to about 1.1 µM and inactive = higher.
Columns and labels:
Test in all cases: NCI anticancer screen, dose series, 48 h
HCC 2998 = test system: HCC 2998
786-0 = test system: 786-0
RXF 393 = test system: RXF 393
SK-MEL-2 = test system: SK-MEL-2
NCI-H226 = test system: NCI-H226
SK-MEL-5 = test system: SK-MEL-5
UACC-62 = test system: UACC-62
OVCAR-5 = test system: OVCAR-5
CAKI-1 = test system: CAKI-1
NCI-H460 = test system: NCI-H460
NCI-H23 = test system: NCI-H23
OVCAR-8 = test system: OVCAR-8
KM12 = test system: KM12
A549 = test system: A549
COLO 205 = test system: COLO 205
ACHN = test system: ACHN
EKVX = test system: EKVX

Measured: GI50

CN(C)CCSc1nccc(-c2cc3ccccc3s2)n1
inactive: HCC 2998 15.7 µM | 786-0 24.2 µM | RXF 393 18.5 µM | SK-MEL-2 17.3 µM | NCI-H226 14.9 µM | SK-MEL-5 14.3 µM | UACC-62 20.4 µM | OVCAR-5 27.2 µM | CAKI-1 25.8 µM | NCI-H460 13.8 µM | NCI-H23 > 10 µM | OVCAR-8 22.3 µM | KM12 19.3 µM | A549 17.6 µM | COLO 205 17.2 µM

CCOC(=O)C1=C(C)N(NC(=O)Nc2ccccc2)C2(N)N(NC(=O)Nc3ccccc3)C(C)=C(C(=O)OCC)C12C#N (stereo unspecified)
inactive: HCC 2998 19.2 µM | 786-0 18 µM | RXF 393 13.6 µM | SK-MEL-2 16.1 µM | NCI-H226 18.4 µM | UACC-62 17.5 µM | OVCAR-5 17.8 µM | CAKI-1 19.2 µM | NCI-H460 17.8 µM | NCI-H23 22.3 µM | OVCAR-8 18.5 µM | ACHN 21 µM | A549 26.5 µM | COLO 205 17.7 µM

CCCC/C=C1\CCC(CN2CCCC2)C1=O (stereo unspecified)
inactive: HCC 2998 18.7 µM | 786-0 1.83 µM | SK-MEL-2 16 µM | NCI-H226 17.3 µM | SK-MEL-5 17.3 µM | UACC-62 17.1 µM | OVCAR-5 19.1 µM | CAKI-1 > 10 µM | NCI-H460 19.9 µM | NCI-H23 17.7 µM | OVCAR-8 15.1 µM | KM12 2.61 µM | EKVX 3.98 µM | ACHN 6.46 µM | A549 18.5 µM | COLO 205 12.9 µM

NCCNc1cccc2ccccc12
inactive: HCC 2998 > 100 µM | 786-0 > 100 µM | RXF 393 > 100 µM | SK-MEL-2 > 100 µM | NCI-H226 > 100 µM | UACC-62 > 100 µM | OVCAR-5 > 100 µM | CAKI-1 > 100 µM | NCI-H460 > 100 µM | NCI-H23 > 100 µM | OVCAR-8 > 100 µM | KM12 > 100 µM | EKVX > 100 µM | ACHN > 100 µM | A549 > 100 µM | COLO 205 > 100 µM

CCOC(=O)[C@H]1Nc2ccc(OC)cc2C2c3ccccc3CC21 (stereo partly specified)
inactive: HCC 2998 46.8 µM | 786-0 > 100 µM | RXF 393 37.5 µM | SK-MEL-2 > 100 µM | NCI-H226 > 100 µM | SK-MEL-5 > 100 µM | UACC-62 > 100 µM | OVCAR-5 > 100 µM | CAKI-1 > 100 µM | NCI-H460 > 100 µM | NCI-H23 > 100 µM | OVCAR-8 > 100 µM | KM12 > 100 µM | ACHN > 100 µM | A549 > 100 µM | COLO 205 > 100 µM

OCCN(CCO)c1ncnc2c1sc(=S)n2-c1ccccc1
inactive: HCC 2998 > 100 µM | 786-0 > 100 µM | RXF 393 > 100 µM | SK-MEL-2 > 100 µM | NCI-H226 > 100 µM | SK-MEL-5 > 100 µM | UACC-62 > 100 µM | OVCAR-5 > 100 µM | CAKI-1 > 100 µM | NCI-H460 > 100 µM | NCI-H23 > 100 µM | OVCAR-8 > 100 µM | KM12 > 100 µM | EKVX > 100 µM | ACHN > 100 µM | A549 > 100 µM | COLO 205 > 100 µM

CCOC(=O)C12CCSC1C1(C#N)C(C#N)=CC2(N=P(c2ccccc2)(c2ccccc2)c2ccccc2)n2c(=O)n(-c3ccccc3)c(=O)n21 (stereo unspecified)
inactive: HCC 2998 27.7 µM | 786-0 47.8 µM | RXF 393 > 100 µM | SK-MEL-2 48.6 µM | NCI-H226 41.3 µM | SK-MEL-5 25.2 µM | UACC-62 27.5 µM | OVCAR-5 > 100 µM | CAKI-1 28.6 µM | NCI-H460 37.7 µM | NCI-H23 49.7 µM | OVCAR-8 47.1 µM | KM12 32.6 µM | EKVX 82.2 µM | ACHN 40.2 µM | A549 34.9 µM | COLO 205 37.8 µM

— ChEMBL document CHEMBL1201862, “PubChem BioAssay data set” (2004)
